Assay results as given in US10071098B2, “Compositions useful for treating herpes simplex labialis and/or herpes esophagitis, and methods using same” (DREXEL UNIVERSITY, priority 2014, dated 2018).

Columns and labels:
HSV-1 = assay: In vivo model of HSV-1 lip infection (herpes simplex labialis) in mice; conditions: BALB/c mice infected on the lower lip; applied every 4 hours for first 12 hours, then every 8 hours for 5 days; FIGS. 13A-13B
Method: KU-55933 and Chk2 Inhibitor II were also efficacious at reducing HSV-1 in an in vivo model of infection (FIGS. 13A-13B). BALB/c mice were infected with HSV-1 on the lower lip, and KU-55933 or Chk2 Inhibitor II was applied every 4 hours for the first 12 hours post infection followed by treatments every 8 hours for the next 5 days. The mice were scored based on the severity of the symptoms, and tracked over the course of infection.

HSV-1 strain KOS [1] = assay: HSV-1 replication in OKF6 cells (qPCR genome copy number and viral yield); assay type: cell-based; conditions: for HSV-1 replication over time course of lytic infection (genome copy number, viral yield): MOI=0.1, FIGS. 8A-8B; for HSV-1 replication as measured by qPCR and viral yield, dose dependence: MOI=0.1, analysis at 20 hours post infection, FIGS. 7A-7C; for effect on reducing HSV-1 replication when combined with acyclovir: low dose of inhibitor combined with low doses of acyclovir, MOI=0.1, FIGS. 11A-11B
Method: (§1) All cells were cultured at 37° C. and 5% CO2 and supplemented with 100 U/mL penicillin and 100 U/mL streptomycin. OKF6/TERT2 human oral mucosal keratinocyte cells were cultured in GIBCO Keratinocyte serum free medium (K-sfm) supplemented with bovine pituitary extract, epidermal growth factor, and calcium chloride (Life Technologies Carlsbad, Calif.). These cells are immortalized by expression of hTERT (Dickson, et al., 2000, Mol. Cell. Biol. 20(4):1436-1447). EPC2 human esophageal epithelial cells were cultured in K-sfm (Carlsbad, Calif.). KOS strain (Smith, Proc. Soc. Exp. Biol. Med. Soc. Exp. Biol. Med. 115:814-816) of HSV-1 was used in all infections. All viral stocks were titered on CV-1 monolayers.
(§2) Subconfluent monolayers of cells were grown in six-well plates. Drug treatments were administered 60 minutes prior to infection and continued for the entire duration of each experiment. Infections with KOS strain of HSV-1 were carried out in six-well plates in a 200 μL inoculum volume at 37° C. for 1 hour with intermittent rocking. The cells were then rinsed and overlaid with fresh medium.
(§3) Unless indicated otherwise, KU-55933 (Batch No. 5, 99.7% purity; Tocris Bioscience, Bristol, UK) and Chk2 Inhibitor II (Sigma-Aldrich, St. Louis, Mo.) were used at 10 μM final concentration, phosphonoacetic acid (PAA) at 400 μg/mL (Sigma-Aldrich, St. Louis, Mo.), and acyclovir at 50 μg/mL (Sigma-Aldrich). KU-55933 and Chk2 Inhibitor II were dissolved in dimethyl sulfoxide (DMSO), and the final concentration of DMSO for KU-55933, Chk2 Inhibitor II, and mock treatments for all in vitro experiments was 0.1%.
(§4) Viral genome replication and transcription were measured by quantitative PCR (qPCR). Total DNA and RNA from infected cells were isolated using the DNeasy Blood & Tissue Kit and the RNeasy Mini Kit, respectively (QIAGEN, Hilden, Germany). RNA was converted to cDNA using qScript (Quanta BioSciences, Gaithersburg, Md.). Real-time qPCR was performed with SYBR Green (Bio-Rad, Hercules, Calif.). Target primers for UL30 (DNA polymerase catalytic subunit) and reference primers for glyceraldehyde 3-phosphate dehydrogenase (GAPDH) were used to measure genome replication. Transcription of the three gene families was measured with primers for RL2 (ICP0), UL30 (DNA polymerase catalytic subunit), UL23 (thymidine kinase), and UL44 (gC), with reference primers for the 18S ribosomal RNA (rRNA).

HSV-1 strain KOS [2] = assay: Protein synthesis of HSV-1 factors in infected OKF6 cells (Western blot); assay type: cell-based; conditions: for protein synthesis of HSV-1 early gene ICP8 / protein synthesis of HSV-1 immediate early gene ICP0 / protein synthesis of HSV-1 leaky-late gene gB / protein synthesis of HSV-1 true-late gene gC: MOI=5, FIGS. 9A-9B; for gC level, inhibitor applied before infection or up to 1 hour post infection / gC level, inhibitor applied between 2 to 3 hours post infection: MOI=5, FIGS. 10A-10B; for gC level, inhibitor applied 4 hours post infection: MOI=5, compared to wild type infection, FIGS. 10A-10B
Method: as §1
Subconfluent monolayers of cells were grown in six-well plates. […] Infections with KOS strain of HSV-1 were carried out in six-well plates in a 200 μL inoculum volume at 37° C. for 1 hour with intermittent rocking. The cells were then rinsed and overlaid with fresh medium.
as §3
Standard protocol was followed for Western blot analysis. Cell lysates were collected in 200 μL Laemmli buffer, vortexed, and boiled at 95° C. for 5 minutes. Protein concentrations were measured by bicinchoninic acid (BCA) assay. SDS-PAGE was followed by transfer onto a polyvinylidene difluoride (PVDF) membrane, which was then blocked in 5% BSA. Primary antibodies against the following proteins were used: ICP0 (mouse monoclonal; Virusys Corporation, Taneytown, Md.), ICP4 and nucleolin (both mouse monoclonal; Santa Cruz Biotechnology, Santa Cruz, Calif.), ICP8 (rabbit polyclonal), glycoprotein B and C (mouse monoclonal and rabbit polyclonal, respectively), ATM and pATM S1981 (rabbit polyclonal and mouse monoclonal, respectively; Rockland), Chk2 and pChk2 T68 (rabbit polyclonal and mouse monoclonal, respectively; Cell Signaling). Blots were stained with secondary antibodies and visualized with the Odyssey near-infrared system (LI-COR, Lincoln, Nebr.).

[3] = tested on: acyclovir-resistant strain of HSV-1, dlspTK; assay: Replication of acyclovir-resistant HSV-1 in OKF6 cells; assay type: cell-based; conditions: MOI=0.1, FIGS. 12A-12B
HSV-1 strain KOS [4] = assay: Transcription of HSV-1 genes in infected OKF6 cells (qPCR); assay type: cell-based; conditions: for effect on viral early factor thymidine kinase: MOI=0.1, FIGS. 9C-9E; for transcription of true-late gene gC: qPCR, MOI=0.1, FIG. 9E
Method: as §1, §2, §3, §4

ATM = ATM activation in HSV-1-infected OKF6 cells (Western blot); assay type: cell-based, human; conditions: MOI=5.0, FIG. 6
Method: All cells were cultured at 37° C. and 5% CO2 and supplemented with 100 U/mL penicillin and 100 U/mL streptomycin. OKF6/TERT2 human oral mucosal keratinocyte cells were cultured in GIBCO Keratinocyte serum free medium (K-sfm) supplemented with bovine pituitary extract, epidermal growth factor, and calcium chloride (Life Technologies Carlsbad, Calif.). […] KOS strain (Smith, Proc. Soc. Exp. Biol. Med. Soc. Exp. Biol. Med. 115:814-816) of HSV-1 was used in all infections. All viral stocks were titered on CV-1 monolayers.
Unless indicated otherwise, KU-55933 (Batch No. 5, 99.7% purity; Tocris Bioscience, Bristol, UK) and Chk2 Inhibitor II (Sigma-Aldrich, St. Louis, Mo.) were used at 10 μM final concentration, phosphonoacetic acid (PAA) at 400 μg/mL (Sigma-Aldrich, St. Louis, Mo.), and acyclovir at 50 μg/mL (Sigma-Aldrich). […]
Standard protocol was followed for Western blot analysis. […] Protein concentrations were measured by bicinchoninic acid (BCA) assay. […]

SMILES | severity of symptoms (score) during the time course of infection (HSV-1) | HSV-1 replication over time course of lytic infection (genome copy number, viral yield) (HSV-1 strain KOS [1]) | HSV-1 replication as measured by qPCR and viral yield, dose dependence (HSV-1 strain KOS [1]) | effect on reducing HSV-1 replication when combined with acyclovir (HSV-1 strain KOS [1]) | protein synthesis of HSV-1 early gene ICP8 (HSV-1 strain KOS [2]) | protein synthesis of HSV-1 immediate early gene ICP0 (HSV-1 strain KOS [2]) | protein synthesis of HSV-1 leaky-late gene gB (HSV-1 strain KOS [2]) | protein synthesis of HSV-1 true-late gene gC (HSV-1 strain KOS [2]) | gC level, inhibitor applied before infection or up to 1 hour post infection (HSV-1 strain KOS [2]) | gC level, inhibitor applied between 2 to 3 hours post infection (HSV-1 strain KOS [2]) | gC level, inhibitor applied 4 hours post infection (HSV-1 strain KOS [2]) | replication (genome copy numbers) of acyclovir-resistant HSV-1 strain dlspTK [3] | effect on viral early factor thymidine kinase (HSV-1 strain KOS [4]) | transcription of true-late gene gC (HSV-1 strain KOS [4]) | ATM activation (ATM)
NC(=O)c1ccc2[nH]c(-c3ccc(Oc4ccc(Cl)cc4)cc3)nc2c1 [Chk2 Inhibitor II, 2-(4-(4-chlorophenoxy)phenyl)-1H-benzimidazole-5-carboxamide] | statistically significant decrease in the severity of symptoms | reduced HSV-1 replication throughout the entire time course of lytic infection | reduced HSV-1 replication in a dose dependent manner | additive to greater-than-additive effect | no impact | no impact | no impact | large reduction | large reduction of gC | Low levels of gC were produced | no impact on gC levels | greatly reduced replication | minimal effect | prevent the transcription | –
O=c1cc(-c2cccc3c2Sc2ccccc2S3)oc(N2CCOCC2)c1 [KU-55933, 2-(morpholin-4-yl)-6-(thianthren-1-yl)-pyran-4-one] | statistically significant decrease in the severity of symptoms | reduced HSV-1 replication throughout the entire time course of lytic infection | reduced HSV-1 replication in a dose dependent manner | additive to greater-than-additive effect | no impact | no impact | no impact | large reduction | large reduction of gC | Low levels of gC were produced | no impact on gC levels | greatly reduced replication | minimal effect | reduction | inhibited ATM activation
